Molecular target: T1, Avi-tagged FL MALT-1 (Homo sapiens, UniProt Q9UDY8)
T1 construct: Avi-tagged FL MALT-1 (Pharmaron, stored at −70° C.); Avi-tag; purchased Pharmaron
T1 sequence (Q9UDY8 1-824): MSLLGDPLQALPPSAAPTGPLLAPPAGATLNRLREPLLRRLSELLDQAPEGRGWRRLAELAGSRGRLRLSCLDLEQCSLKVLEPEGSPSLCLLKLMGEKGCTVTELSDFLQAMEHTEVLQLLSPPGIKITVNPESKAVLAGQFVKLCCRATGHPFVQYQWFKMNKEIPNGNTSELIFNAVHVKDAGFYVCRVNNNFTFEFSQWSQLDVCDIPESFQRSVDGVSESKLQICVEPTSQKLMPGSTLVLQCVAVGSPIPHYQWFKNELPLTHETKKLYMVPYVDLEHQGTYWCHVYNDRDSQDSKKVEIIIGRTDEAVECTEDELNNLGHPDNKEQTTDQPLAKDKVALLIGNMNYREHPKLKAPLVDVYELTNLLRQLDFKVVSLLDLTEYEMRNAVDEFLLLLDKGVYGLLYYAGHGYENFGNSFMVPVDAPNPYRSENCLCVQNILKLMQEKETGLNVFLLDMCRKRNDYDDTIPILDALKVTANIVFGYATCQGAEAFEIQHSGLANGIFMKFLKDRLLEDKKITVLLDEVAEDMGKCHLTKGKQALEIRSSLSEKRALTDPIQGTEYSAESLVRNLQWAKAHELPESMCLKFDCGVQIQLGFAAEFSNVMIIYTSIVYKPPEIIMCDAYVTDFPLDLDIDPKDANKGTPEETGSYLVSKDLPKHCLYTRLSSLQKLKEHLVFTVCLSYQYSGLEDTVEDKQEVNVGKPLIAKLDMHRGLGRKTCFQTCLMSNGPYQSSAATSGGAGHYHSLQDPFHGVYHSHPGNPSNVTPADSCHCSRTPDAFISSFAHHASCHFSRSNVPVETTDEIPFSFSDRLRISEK
Experiment: MALT-1 Fluorogenic Peptide Cleavage Assay (MALT1 inhibition assay)
Assay type: biochemical
Details: Ac-LRSR-AMC peptide substrate; 30 min pre-incubation, 90 min reaction at room temperature; fluorescence
Procedure, shortened: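 Full-length Avi-tagged enzyme preincubated 30 min at room temperature with compound (2% DMSO final) in HEPES pH 6.89 buffer with sodium citrate, TCEP, EDTA and CHAPS. Ac-LRSR-AMC substrate added at Km or 10×Km (working stocks 50 or […] μM); fluorescence (ex 342/em 441 nm) after 90 min; IC50 from sigmoidal fit.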

Structure (SMILES) | IC50 [nM]
O=C(Nc1ccc(C(=O)N2CC(O)C2)c(Cl)c1)c1snc(-c2cccc3nccn23)c1C1CC1 [I-190, N-(3-chloro-4-(3-hydroxyazetidine-1-carbonyl)phenyl)-4-cyclopropyl-3-(imidazo[1,2-a]pyridin-5-yl)isothiazole-5-carboxamide] | ≤ 400
O=C(Nc1cnc(-n2nccn2)c(Cl)c1)c1snc(-c2cccc3c(=O)[nH]ccc23)c1C(F)(F)F [I-107] | ≤ 400
CCc1c(-c2ccccc2)nsc1C(=O)Nc1cnc(-n2nccn2)c(Cl)c1 [I-11, N-(5-CHLORO-6-(2H-1,2,3-TRIAZOL-2-YL) PYRIDIN-3-YL)-4-ETHYL-3-PHENYLISOTHIAZOLE-5-CARBOXAMIDE] | ≤ 400
CN1CCN(c2ncc(NC(=O)c3snc(-c4ccccc4)c3C3CC3)cc2C#N)CC1 [I-54, N-(5-CYANO-6-(4-METHYLPIPERAZIN-1-YL) PYRIDIN-3-YL)-4-CYCLOPROPYL-3-PHENYLISOTHIAZOLE-5-CARBOXAMIDE] | ≤ 400
CN(C(=O)c1snc(-c2ccccc2)c1C(F)(F)F)c1cnc(-n2nccn2)c(Cl)c1 [I-18, N-(5-CHLORO-6-(2H-1,2,3-TRIAZOL-2-YL) PYRIDIN-3-YL)-N-METHYL-3-PHENYL-4-(TRIFLUOROMETHYL)ISOTHIAZOLE-5-CARBOXAMIDE] | ≤ 400
N#Cc1cc(NC(=O)c2snc(-c3cccn4nccc34)c2C2CC2)cnc1-n1nccn1 [I-114] | ≤ 400
O=C(Nc1cnc(-n2nccn2)c(Cl)c1)c1snc(-c2ccccc2)c1C1CC1 [I-6, N-(5-CHLORO-6-(2H-1,2,3-TRIAZOL-2-YL) PYRIDIN-3-YL)-4-CYCLOPROPYL-3-PHENYLISOTHIAZOLE-5-CARBOXAMIDE] | ≤ 400
N#Cc1cc(NC(=O)c2snc(-c3ncccc3Cl)c2C(F)(F)F)cnc1-n1nccn1 [I-20, 3-(3-CHLOROPYRIDIN-2-YL)-N-(5-CYANO-6-(2H-1,2,3-TRIAZOL-2-YL)PYRIDIN-3-YL)-4-(TRIFLUOROMETHYL)ISOTHIAZOLE-5-CARBOXAMIDE] | ≤ 400
N#Cc1cc(NC(=O)c2snc(-c3cccc4ncoc34)c2C2CC2)cnc1-n1nccn1 [I-109] | ≤ 400
O=C(Nc1ccc(C(=O)N2CC(O)C2)c(Cl)c1)c1snc(-c2cccc3ncccc23)c1C1CC1 [I-133, N-(3-chloro-4-(3-hydroxyazetidine-1-carbonyl)phenyl)-4-cyclopropyl-3-(quinolin-5-yl)isothiazole-5-carboxamide] | ≤ 400
CC(=O)N(C)c1ncc(NC(=O)c2snc(-c3ccccc3)c2C2CC2)cc1C#N [I-51, N-(5-CYANO-6-(N-METHYLACETAMIDO) PYRIDIN-3-YL)-4-CYCLOPROPYL-3-PHENYLISOTHIAZOLE-5-CARBOXAMIDE] | ≤ 400
Cc1cc(NC(=O)c2snc(-c3ccccc3)c2C2CC2)cn(C)c1=O [I-41] | > 2500
N#Cc1cc(NC(=O)c2snc(O)c2C2CC2)cnc1-n1nccn1 [I-52, N-(5-CYANO-6-(2H-1,2,3-TRIAZOL-2-YL) PYRIDIN-3-YL)-4-CYCLOPROPYL-3-HYDROXYISOTHIAZOLE-5-CARBOXAMIDE] | > 2500
Cc1cc(NC(=O)c2snc(-c3ccccc3)c2C2CC2)cnc1-n1nccn1 [I-12, 4-CYCLOPROPYL-N-(5-METHYL-6-(2H-1,2,3-TRIAZOL-2-YL)PYRIDIN-3-YL)-3-PHENYLISOTHIAZOLE-5-CARBOXAMIDE] | ≤ 400
Cc1cc(NC(=O)c2snc(-c3cccc4ncccc34)c2C2CC2)ccn1 [I-199, 4-cyclopropyl-N-(2-methylpyridin-4-yl)-3-(quinolin-5-yl)isothiazole-5-carboxamide] | ≤ 400
COc1ncc(NC(=O)c2snc(-c3ccccc3)c2C2CC2)cc1Cl [I-40, N-(5-CHLORO-6-METHOXYPYRIDIN-3-YL)-4-CYCLOPROPYL-3-PHENYLISOTHIAZOLE-5-CARBOXAMIDE] | ≤ 400

The next lines start with the values.

IC50 [nM] | Structure (SMILES)
≤ 400 | O=C(Nc1ccnc(C(F)(F)F)c1)c1snc(-c2ccc(C(F)F)cc2)c1C1CC1 [I-154, 4-cyclopropyl-3-(4-(difluoromethyl)phenyl)-N-(2-(trifluoromethyl)pyridin-4-yl)isothiazole-5-carboxamide]
≤ 400 | O=C(Nc1ccnc(C(F)(F)F)c1)c1snc(-c2ccccc2)c1C1CC1 [I-26, 3-PHENYL-4-CYCLOPROPYL-N-(2-(TRIFLUOROMETHYL)PYRIDIN-4-YL)ISOTHIAZOLE-5-CARBOXAMIDE]
≤ 400 | O=C(Nc1cnc(-n2nccn2)c(C(F)(F)F)c1)c1snc(-c2ccccc2)c1C1CC1 [I-14, 4-CYCLOPROPYL-N-(5-(TRIFLUOROMETHYL)-6-(2H-1,2,3-TRIAZOL-2-YL)PYRIDIN-3-YL)-3-PHENYLISOTHIAZOLE-5-CARBOXAMIDE]
1000 to 2500 | Cn1ccc(-c2nsc(C(=O)Nc3ccnc(C(F)(F)F)c3)c2C2CC2)n1 [I-150, 4-cyclopropyl-3-(1-methyl-1H-pyrazol-3-yl)-N-(2-(trifluoromethyl)pyridin-4-yl)isothiazole-5-carboxamide]
≤ 400 | Cc1ncc(NC(=O)c2snc(-c3ccccc3)c2C2CC2)cc1Cl [I-33]
400 to 1000 | CC(=O)Nc1cccc(-c2nsc(C(=O)Nc3ccnc(C(F)(F)F)c3)c2C2CC2)c1 [I-141, 4-cyclopropyl-3-(3-acetamidophenyl)-N-[2-(trifluoromethyl)pyridin-4-yl]-1,2-thiazole-5-carboxamide]
400 to 1000 | Cc1cncc(-c2nsc(C(=O)Nc3ccnc(C(F)(F)F)c3)c2C2CC2)c1 [I-167, 4-cyclopropyl-3-(5-methylpyridin-3-yl)-N-(2-(trifluoromethyl)pyridin-4-yl)isothiazole-5-carboxamide]
≤ 400 | O=C(Nc1ccnc(C(F)(F)F)c1)c1snc(-c2ccncc2)c1C1CC1 [I-184, 4-cyclopropyl-3-(pyridin-4-yl)-N-(2-(trifluoromethyl)pyridin-4-yl)isothiazole-5-carboxamide]
≤ 400 | O=C(Nc1ccnc(C(F)(F)F)c1)c1snc(-c2cccc3scnc23)c1C1CC1 [I-159, 3-(1,3-benzothiazol-4-yl)-4-cyclopropyl-N-[2-(trifluoromethyl)pyridin-4-yl]-1,2-thiazole-5-carboxamide]
≤ 400 | O=C(Nc1ccnc(C(F)(F)F)c1)c1snc(-c2ccc(F)cc2)c1C1CC1 [I-172, 4-cyclopropyl-3-(4-fluorophenyl)-N-[2-(trifluoromethyl)pyridin-4-yl]-1,2-thiazole-5-carboxamide]
